Data on seven compounds can be found in ChEMBL document CHEMBL1201862, “PubChem BioAssay data set” (2004).

SMILES strings stand for the structures.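 96-well plates; 48 h exposure; 5 concentrations. Endpoints by linear interpolation between flanking doses. Not reached: highest tested concentration assigned. GI50 = concentration required for 50% inhibition of growth.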 Calls of active or inactive are those of the source. Cut-off read from the data, not from the text of the source: active = GI50 up to about 1.1 µM and inactive = higher. Where a SMILES comes first, the peptide text is derived from it. [ ]: non-standard residue; d: D form. The star is where a group is joined. ξ: configuration not given here. Propanoyl(3-(4-MeO-Ph)) = COc1ccc(CCC(=O)*)cc1; Thr(3ξ) = CC(O)[C@H](N)C(=O)O; dNMeL = CN[C@H](CC(C)C)C(=O)O; OBn = c1ccc(CO*)cc1; ξLac = CC(O)C(=O)O Where only a bound is given, the exact number is not on record here.

Test systems include NCI-H522; Malme-3M; SNB-75; PC-3; U-251; SF-539; NCI-H226; A549; MDA-N; MCF7; OVCAR-3; EKVX; OVCAR-8; TK-10; 786-0; SR; COLO 205; HT-29; IGROV-1; Hs-578T.
Common to all, as to assay: NCI tumour cell line growth inhibition, 48 h

For the compound `O=S(=O)(c1cnccc1N1CCN(CCO)CC1)N1CCCC1`, the GI50 in the test with NCI-H522, with Malme-3M, in the test on SNB-75, in the test on PC-3, with U-251 and in the test on SF-539 was > 100 µM (inactive) each time. Besides, the GI50 in the test with NCI-H226, in the test with A549, in the test with MDA-N, in the test on MCF7, in the test with OVCAR-3 and with EKVX was > 100 µM (inactive) each time. Also, the GI50 in the test with OVCAR-8, in the test on TK-10, in the test on 786-0, in the test on SR, in the test with COLO 205 and in the test on HT-29 was > 100 µM (inactive) each time. The GI50 with IGROV-1 and in the test with Hs-578T was > 100 µM (inactive) each time.
As to `CCOc1nc(-c2ccccc2)cc(-c2ccc(N3CCOCC3)cc2)c1C#N`, the GI50 in the test on NCI-H522, with Malme-3M, with SNB-75, in the test on PC-3, with U-251 and in the test with SF-539 was > 100 µM (inactive) in each case. Besides, the GI50 with NCI-H226, in the test with A549, with MDA-N, with MCF7, in the test with OVCAR-3 and in the test with EKVX was > 100 µM (inactive) each time. Also, the GI50 in the test with OVCAR-8, in the test on TK-10, in the test on 786-0, in the test on SR, in the test with COLO 205 and with HT-29 was > 100 µM (inactive) throughout. Moreover, the GI50 in the test on IGROV-1 and with Hs-578T was > 100 µM (inactive) each time.
Take `COc1ccc(CCC(=O)OC(C)[C@H](NC(=O)[C@@H](CC(C)C)N(C)C(=O)[C@@H]2CCCN2C(=O)C(C)O)C(=O)OCc2ccccc2)cc1` (stereo not given in full) (H-[ξLac]P[dNMeL][Thr(3ξ)](Propanoyl(3-(4-MeO-Ph)))-OBn): the GI50 with NCI-H522 is 24.3 µM (inactive); in the test with Malme-3M, 20.8 µM (inactive); in the test with SNB-75, 19.9 µM (inactive); in the test with PC-3, 30.5 µM (inactive); in the test on U-251 it was 26.5 µM (inactive); with SF-539, 24.6 µM (inactive). Further, the GI50 in the test on NCI-H226 is 30.4 µM (inactive); in the test with A549 it was 52.4 µM (inactive); in the test with MDA-N, 32.4 µM (inactive); with MCF7, 38.1 µM (inactive); with OVCAR-3 it was 29.8 µM (inactive); in the test with EKVX, 80.7 µM (inactive). Besides, the GI50 with OVCAR-8 is 96.2 µM (inactive); with TK-10, 18.9 µM (inactive); in the test on 786-0, 35.2 µM (inactive); in the test with SR, 34.4 µM (inactive); in the test on COLO 205 it was 19.5 µM (inactive); with HT-29 it was 36.5 µM (inactive). The GI50 with IGROV-1 was 30.5 µM (inactive); in the test with Hs-578T, 12.9 µM (inactive).
Take `O=C1C(CN2CCCC2)CCCC1CN1CCCC1` (stereo not given): the GI50 in the test with NCI-H522 is 0.0495 µM (active); with Malme-3M, 0.611 µM (active); in the test on SNB-75, 19.7 µM (inactive); in the test with PC-3, 18.2 µM (inactive); in the test on U-251, 19.6 µM (inactive); in the test with SF-539, 7.36 µM (inactive). Besides, the GI50 in the test on NCI-H226 is 22.1 µM (inactive); in the test with A549 it was 19.8 µM (inactive); with MDA-N, 7.59 µM (inactive); with MCF7, 0.658 µM (active); in the test with OVCAR-3, 5.01 µM (inactive); in the test on EKVX, 3.52 µM (inactive). Also, the GI50 was 4.37 µM (inactive) in the test on OVCAR-8; 2.19 µM (inactive) in the test with TK-10; 1.07 µM (active) in the test with 786-0; 3.04 µM (inactive) in the test on SR; 1.53 µM (inactive) with COLO 205; 14.7 µM (inactive) in the test with HT-29. For the same compound, the GI50 with IGROV-1 was 17.1 µM (inactive); in the test on Hs-578T, 28 µM (inactive).
For `CC(C)(C)CC(C)(C)c1ccc(O)c(C[N+](C)(C)[O-])c1`, the GI50 with NCI-H522 is 53.5 µM (inactive); in the test with Malme-3M it was > 100 µM (inactive); in the test with SNB-75, 91.2 µM (inactive); in the test with PC-3 it was 85.7 µM (inactive); in the test with U-251 it was > 100 µM (inactive); in the test on SF-539 it was > 100 µM (inactive). The GI50 with NCI-H226 is > 100 µM (inactive); in the test on A549, > 100 µM (inactive); with MDA-N it was > 100 µM (inactive); in the test on MCF7, 80 µM (inactive); with OVCAR-3, 58.5 µM (inactive); in the test with EKVX, > 100 µM (inactive). The GI50 in the test on OVCAR-8 was > 100 µM (inactive); in the test with TK-10, > 100 µM (inactive); in the test with 786-0, > 100 µM (inactive); with SR, 64.9 µM (inactive); with COLO 205, 60.3 µM (inactive); with HT-29, 73.6 µM (inactive). Further, the GI50 with IGROV-1 is > 100 µM (inactive); in the test on Hs-578T, 65.6 µM (inactive).
Turning to `C/C1=C/C2OC(=O)C3(C)C2C(CC2(C)OC1=CC2=O)OC3(O)C(C)C` (stereo not given), the GI50 was 14.8 µM (inactive) in the test on NCI-H522; 33.5 µM (inactive) in the test on Malme-3M; > 61.1 µM (inactive) in the test on SNB-75; 40.8 µM (inactive) with PC-3; 23.9 µM (inactive) with U-251; 41.4 µM (inactive) in the test with SF-539. Also, the GI50 in the test on NCI-H226 was 33.5 µM (inactive); in the test with A549 it was > 56 µM (inactive); in the test on MDA-N it was 53.7 µM (inactive); with MCF7 it was 43.7 µM (inactive); with OVCAR-3, 31.2 µM (inactive); with EKVX it was 47.6 µM (inactive). The GI50 is 29 µM (inactive) with OVCAR-8; 41.5 µM (inactive) in the test with TK-10; 26.1 µM (inactive) in the test on 786-0; 22.6 µM (inactive) with SR; 36.6 µM (inactive) in the test with COLO 205; 28.3 µM (inactive) in the test with HT-29. Further, the values for the GI50 in the test with IGROV-1 and in the test on Hs-578T were 35.3 µM (inactive) and 59 µM (inactive), respectively.
In the case of `O=C1CSC2(CC(/C=C/c3cccc(Br)c3)=NN2c2cccc(S(=O)(=O)O)c2)N1c1nc2ccccc2s1` (stereo not given), the GI50 with NCI-H522 was 58.5 µM (inactive); in the test on Malme-3M, > 100 µM (inactive); in the test with SNB-75 it was > 100 µM (inactive); in the test with PC-3, > 100 µM (inactive); in the test on U-251, > 100 µM (inactive); in the test on SF-539, > 100 µM (inactive). The GI50 in the test with NCI-H226 is > 100 µM (inactive); in the test on A549 it was > 100 µM (inactive); in the test on MDA-N it was > 100 µM (inactive); in the test with MCF7, 65.6 µM (inactive); with OVCAR-3, > 100 µM (inactive); in the test with EKVX, > 100 µM (inactive). The GI50 in the test on OVCAR-8 was > 79.8 µM (inactive); in the test with TK-10, > 100 µM (inactive); in the test on 786-0, > 100 µM (inactive); in the test on SR, 41.5 µM (inactive); in the test on COLO 205, > 100 µM (inactive); in the test with HT-29, > 100 µM (inactive). Besides, the figures for the GI50 in the test with IGROV-1 and in the test with Hs-578T were 58.6 µM (inactive) and > 100 µM (inactive), respectively.
